Inconclusive results are not listed.
System: M. tuberculosis H37Rv growth inhibition, 7H9 media
Test: M. tuberculosis growth inhibition, HTS (AID 449762);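 further: bacterial growth assessed after seven days of incubation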
Details: for IC90: measured here: IC90 growth inhibition

| SMILES | IC50 [µM] | IC90 [µM] |
| --- | --- | --- |
| COC(=O)CCc1sc(Nc2ccc(Br)cc2)nc1-c1ccc(OC)cc1 | 26 | 44.1 |
| O=C(Oc1ccc(-c2cn3c(n2)SCC3)cc1)c1ccccc1 | 38.2 | > 100 |
| COc1ccccc1/C=C/C1=NC(=C\C=C/c2ccccc2)/C(=O)O1 |  | > 100 |
| O=[N+]([O-])c1ccc(N2CCCCC2)s1 | 7.61 | 17.9 |
| CCCN(CC1CC1)C(=O)COC(=O)c1ccc2c(c1)C(=O)N(c1ccc(OCC)cc1)C2=O | 35.2 | > 100 |
| CC1CC2=C(CC1/C=N/NC(N)=S)C(C)(C)CCC2 (centres undefined) | 14.4 | 24.6 |
| Cc1cccc(C(=O)OCC(=O)N2CCc3ccccc3C2)c1O | 46.3 | > 100 |
| O=C(NCCCN1CCOCC1)c1cc2c([nH]c3ccccc32)c(-c2cccc(Br)c2)n1 | 10.4 | 13.4 |
| CC1CCc2c(sc3ncnc(NCCCOC(C)C)c23)C1 (centres undefined) | 53.2 | 67.1 |
| O=[N+]([O-])/C=C/c1cn(Cc2ccccc2)c2ccccc12 | 82.9 | > 100 |
| Cc1ccc(Cn2ccsc2=NC(=O)CCl)cc1 | 0.57 | 1.52 |
| O=C(NC1CCCCC1)C(c1ccc2ncccc2c1)N(Cc1ccco1)C(=O)c1ccc2c(c1)OCCO2 (centres undefined) | 92.7 | > 100 |
| COc1nc(-c2ccccc2)cc(-c2ccc(OC)c(OC)c2)n1 | 45.3 | > 100 |
| CCOC(=O)c1c(CC(C)C)csc1NC(=O)CCl | < 0.2 | 7.5 |
| CCCCCCCCCCC[N+](C)(C)CC/C=C1/c2ccccc2Sc2ccc(Cl)cc21 | 7.04 | 8.09 |
| Cc1cc(OC(=O)c2cccs2)c2c3c(c(=O)oc2c1)CCCC3 | 3.04 | 3.52 |
| N#Cc1ccc(CN2CCN(CC(=O)NCCc3ccc(Cl)cc3Cl)CC2)cc1 | 43.1 | 54 |
| Cn1cccc1/C=C1/C(=O)NC(=S)N(Cc2ccc(F)cc2)C1=O | 24.2 | > 100 |
| CN(C)CCOc1ccc(-c2c(-c3ccsc3)sc3ccccc23)cc1 | 13.2 | 15.5 |
| COc1ccc(N=c2ssnc2Cl)cc1 | 38.9 | > 100 |
| COc1cc(NC(C)CCCN)c2ncccc2c1 (centres undefined) | 9.14 | 13.9 |
| CC(C)(C)C(=O)NC(=S)NNC(=O)c1sc2ccccc2c1Cl | 23.8 | > 100 |
| O=C(c1cccc([N+](=O)[O-])c1)N1CCN(c2ccc(N3CCOCC3)nn2)CC1 | 19.7 | 26.6 |

| SMILES | IC50 [µM] | IC90 [µM] |
| --- | --- | --- |
| NC(=S)N/N=C/c1ccc(-c2ccccc2)o1 | 48.8 | 75 |
| Cc1ccc(Cl)cc1N1CCN(C(=O)C2CCC(=O)N(C3CCCCCC3)C2)CC1 (centres undefined) | 19.3 | 28.6 |
| CCOC(=O)C1CCN(c2cc3c(cc2NC(=O)c2ccccc2Cl)n(C)c(=O)n3C)CC1 | 46.6 | 53.9 |
| CCCCn1c(NCc2ccc3c(c2)OCO3)nc2ccccc21 | 19 | 31.1 |
| COc1ccc(CCNc2cc(-c3ccccc3)nc3ncnn23)cc1 | 4.49 | > 100 |
| COC(=O)C(Cc1ccc(OC(=O)c2ccc(C(F)(F)F)cc2)cc1)N1Cc2ccccc2C1=O (centres undefined) |  | > 100 |
| NN(Cc1ccccc1)C(=S)Nc1ccc(Cl)c(Cl)c1 | 33.8 | 58.1 |
| CC(C)(C)C1CCc2c(sc3nc(SCC(N)=O)nc(N)c23)C1 (centres undefined) | 15.4 | 31.8 |
| c1ccc(-c2cn3c(n2)CCc2ccc4cccnc4c2-3)cc1 | 8.12 | 41.2 |
| CCN(CC)S(=O)(=O)c1ccc2oc(SCC(=O)Nc3cc(C)on3)nc2c1 | 1.39 | 5.88 |
| CC1CCN(c2nc(Cl)nc(Nc3ccc([N+](=O)[O-])cc3)n2)CC1 | 79.8 | > 100 |
| C/C=C(\C)C(=O)Nc1cccc(C2=NOC3(C2)C[C@H](C(N)=O)N(C(=O)c2cc([N+](=O)[O-])cc([N+](=O)[O-])c2)C3)c1 (some centres undefined) | 1.34 | 3.37 |
| CCOC(=O)c1ccc(NC2=CC(=O)C(=O)c3ccccc32)cc1 | 31.7 | 39.7 |
| O=C1CCC(=O)N1CNc1ccc(Oc2ccccc2)cc1 |  | > 100 |
| Cc1ccc(S(=O)(=O)NCc2ccc(C(=O)NCCCN3CCC(Cc4ccccc4)CC3)cc2)cc1 | 79.8 | > 100 |
| c1ccc(CC2CCN(C3=Nc4cccc5cccc3c45)CC2)cc1 | 29.3 | 38.1 |
| CCn1cnc2sc(C(=O)Oc3ccc(Br)cc3)c(C)c2c1=O | 3.2 | 11.3 |
| Cc1cccc(/C=c2\s/c(=C\C(=O)C(C)(C)C)[nH]c2=O)c1 | 5.66 | 23.6 |
| CC(=O)c1ccc(NC(=O)c2cc(CC(C)C)on2)cc1 | 11.1 | 14.4 |
| CC1C/C(=C\c2cccnc2)C(=O)/C(=C/c2cccnc2)C1 (centres undefined) | 3.38 | 8.85 |
| CN(C)CCCN1c2ccccc2Sc2ccc(Cl)cc21 | 51.6 | 59 |
| CCCCCCCCSc1nnc(CSc2nc3nc(C)cc(C)n3n2)o1 | 1.05 | 8.29 |
| Cc1c(OCc2ccccc2)c(=O)ccn1Cc1ccc(Cl)cc1 | 39.4 | 60.1 |

From PubChem BioAssay AID449762 (Southern Research Specialized Biocontainment Screening …, 2010)
